Test results: patent US8486892B2, “Blood coagulation factor inhibitors” (Novo Nordisk Health Care AG, priority 2008, dated 2013)

Molecular target: T1, 40K-PEG-rFVIIa (Homo sapiens, UniProt P08709)
T1 construct: Typically, Factor VII is cleaved between residues 152 and 153 to yield Factor VIIa; 40K-PEG (about 40 kDa PEG on a glycan)
T1 sequence (P08709 213-466 limits assumed): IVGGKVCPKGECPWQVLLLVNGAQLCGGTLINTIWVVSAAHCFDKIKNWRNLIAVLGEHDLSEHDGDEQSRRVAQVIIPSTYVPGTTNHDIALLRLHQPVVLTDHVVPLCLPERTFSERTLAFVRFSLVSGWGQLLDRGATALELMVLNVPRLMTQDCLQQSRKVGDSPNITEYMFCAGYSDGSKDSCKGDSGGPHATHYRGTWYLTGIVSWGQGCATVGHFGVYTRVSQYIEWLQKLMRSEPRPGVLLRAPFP
T1 sequence (P08709 61-212 limits assumed): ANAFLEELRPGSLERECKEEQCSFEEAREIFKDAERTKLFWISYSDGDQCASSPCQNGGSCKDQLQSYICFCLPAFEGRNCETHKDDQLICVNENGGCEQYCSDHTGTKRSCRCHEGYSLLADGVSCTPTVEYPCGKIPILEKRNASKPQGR
Experiment: Stability experiment on 40K-PEG-rFVIIa in solution, clot activity by One-stage Coagulation Assay (Assay 4)
Format: biochemical
Conditions: 20 mg/ml 40K-PEG-rFVIIa, pH 7.0, 3 months at 25° C.
Experimental: Factor VII polypeptides may also be assayed for specific activities (“clot activity”) by using a one-stage coagulation assay (Assay 4). For this purpose, the sample to be tested is diluted in 50 mM PIPES-buffer (pH 7.2), 1% BSA and 40 μl is incubated with 40 μl of Factor VII deficient plasma and 80 μl of human recombinant tissue factor containing 10 mM Ca^2+ and synthetic phospholipids. Coagulation times (clotting times) are measured and compared to a standard curve using a reference standard in a parallel line assay.
In order to investigate the stabilizing effect of the compounds described by the current invention on Factor VIIa molecules in solution, a stability experiment was performed on 40K-PEG-rFVIIa.
The investigated formulations contained 0, 1, 10 or 30 mM n-propyloxycarbonyl-Phe(4-amidino)-Glu-Asn-Cha-(OEG)5-NH2, and all contained 20 mg/ml 40K-PEG-rFVIIa, 20 mM histidine, pH 7.0, 6% sucrose, 20 mM CaCl2, 0.5 mg/ml methionine. The samples were incubated 3 months at 25° C., and analysed for clot activity using the above-described “One-stage Coagulation Assay” (Assay 4) (see section “General Methods”).

Substance: Propyloxycarbonyl-(4-amidino-Phe)-Glu-Asn-Cha-[HN—(CH2—CH2—O)2—(CH2)—C(═O)]5—NH2 [Example 1]
- Clot activity relative to the initial value (1 mM inhibitor): 18%
- Clot activity relative to the initial value (10 mM inhibitor): 86%
- Clot activity relative to the initial value (30 mM inhibitor): 89%
